According to US10738028B2, “Spiro three-membered ring, spiro five-membered ring peptide deformylase inhibitor and use thereof in antibacteria and anti-tumor” (priority 2016, dated 2020):
In brackets after ≈: the same amount, converted by molar mass. Read-outs that look alike come from different tables or passages of the source.

What was measured:
Format in all cases: cell-based
[1] = system: Escherichia coli (including ESBLs, non-ESBLs); experiment: MIC, two-fold agar dilution (CLSI), clinical isolates
Text: (§1) 1. The invention adopts the two-fold agar dilution method recommended by the operating procedure of antimicrobial susceptibility testing set by American Clinical and Laboratory Standards Institute (CLSI) to determine the Minimum Inhibitory Concentration (MIC) of the test samples against the tested strains.

[2] = system: methicillin-resistant Staphylococcus aureus (MRSA); experiment: as above
Text: as §1

[3] = system: methicillin-resistant Staphylococcus epidermidis (MRSE); experiment: as above
Text: as §1

[4] = system: Enterococcus faecalis (EFA); experiment: as above
Text: as §1

[5] = system: methicillin-sensitive Staphylococcus aureus (MSSA); experiment: as above
Text: as §1

[6] = system: methicillin-sensitive Staphylococcus epidermidis (MSSE); experiment: as above
Text: as §1

[7] = system: HCT-116 colorectal cancer cell line; experiment: CCK-8 proliferation inhibition; details: Homo sapiens, HCT-116, 72 h, read-out: HCT116 inhibition rate/%
Description: (1) HCT-116 colorectal cancer cell line, A549 lung cancer cell line, MGC-803 gastric cancer cell line, BEL-7402 liver cancer cell line, Jurkat T cell leukemia cell line, HL60 acute myeloid leukemia cell line, Hela cervical cancer cell line, MCF-7 breast cancer cell line, PC3 prostate cancer cell line and SAOS-2 osteosarcoma cell line were made into single cell suspension, 180 μL of which was inoculated into 96-well culture plate, which was cultured overnight in CO2 incubator (37° C., 5% CO2, 95% air).
(2) Each of the spiro three-membered ring, spiro five membered ring peptide deformylase inhibitors was dissolved in DMSO, and was further formulated into drug solution with required different final concentration using corresponding cell culture medium. The drug solutions were added to the above cells respectively (20 μL/well), with the control group added with 1‰ DMSO, and cultured in a CO2 incubator for 72 hours.
(3) After incubation for 72 hours, the culture solution was decanted, and 100 μL of 1:10 diluted CCK-8 solution was added.
Wherein, in step (1), the concentration of the single cell suspension was 2000 cells/well.
Wherein, in step (2), HCT-116 cells were cultured in McCoy's 5A medium (containing 10% newborn bovine serum, 1% double antibody); A549 and PC3 cells were cultured in F12 medium (containing 10% newborn bovine serum, 1% double antibody); MGC-803, BEL-7402, SAOS-2, Jurkat and HL60 cells were cultured in 1640 medium (containing 10% newborn bovine serum, 1% double antibody); and MCF-7 and Hela cells were cultured in DMEM high glucose medium (containing 10% newborn bovine serum, 1% double antibody).

[8] = strain printed MRSA 14-1 (second line of that name, r23, before MRSE 14-2)

| Structure (SMILES) | MIC (anti-bacterial activity) ([1]; strain ECO+ 14-1) [µg/mL] | MIC (anti-bacterial activity) ([1]; strain ECO+ 14-2) [µg/mL] | MIC (anti-bacterial activity) ([1]; strain ECO− 14-1) [µg/mL] | MIC (anti-bacterial activity) ([1]; strain ECO− 14-2) [µg/mL] | MIC (anti-bacterial activity) ([2]; strain MRSA 14-1) [µg/mL] | MIC (anti-bacterial activity) ([2]; strain MRSA 14-2) [µg/mL] | MIC (anti-bacterial activity) ([2]; strain MRSA 14-4) [µg/mL] | MIC (anti-bacterial activity) ([2]; strain MRSA 14-5) [µg/mL] | MIC (anti-bacterial activity) [2, 8] [µg/mL] | MIC (anti-bacterial activity) ([3]; strain MRSE 14-2) [µg/mL] | MIC (anti-bacterial activity) ([3]; strain MRSE 14-3) [µg/mL] | MIC (anti-bacterial activity) ([3]; strain MRSE 14-4) [µg/mL] | MIC (anti-bacterial activity) ([4]; strain EFA 14-1) [µg/mL] | MIC (anti-bacterial activity) ([4]; strain EFA 14-2) [µg/mL] | MIC (anti-bacterial activity) ([4]; strain EFA 14-3) [µg/mL] | MIC (anti-bacterial activity) ([4]; strain EFA 14-5) [µg/mL] | MIC (anti-bacterial activity) ([5]; strain MSSA 14-1) [µg/mL] | MIC (anti-bacterial activity) ([5]; strain MSSA 14-2) [µg/mL] | MIC (anti-bacterial activity) ([5]; strain MSSA 14-3) [µg/mL] | MIC (anti-bacterial activity) ([5]; strain MSSA 14-4) [µg/mL] | further results |
| --- | --- | --- | --- | --- | --- | --- | --- | --- | --- | --- | --- | --- | --- | --- | --- | --- | --- | --- | --- | --- | --- |
| CCCC[C@H](CN(O)C=O)C(=O)N1CC2(CC2)C[C@H]1C(=O)Nc1cc[nH]n1 [Example 1] | 16 (≈ 42.4 µM) | 128 (≈ 339 µM) | > 128 | > 128 | 16 (≈ 42.4 µM) | 32 (≈ 84.8 µM) | 16 (≈ 42.4 µM) | 8 (≈ 21.2 µM) | 8 (≈ 21.2 µM) | 8 (≈ 21.2 µM) | 4 (≈ 10.6 µM) | 8 (≈ 21.2 µM) | 64 (≈ 170 µM) | 64 (≈ 170 µM) | 64 (≈ 170 µM) | > 128 | 16 (≈ 42.4 µM) | 16 (≈ 42.4 µM) | 16 (≈ 42.4 µM) | 16 (≈ 42.4 µM) | MIC (anti-bacterial activity) ([6]; strain MSSE 14-1): 4 µg/mL (≈ 10.6 µM); MIC (anti-bacterial activity) ([6]; strain MSSE 14-2): 16 µg/mL (≈ 42.4 µM); MIC (anti-bacterial activity) ([6]; strain MSSE 14-3): 4 µg/mL (≈ 10.6 µM); MIC (anti-bacterial activity) ([6]; strain MSSE 14-4): 4 µg/mL (≈ 10.6 µM); inhibition at 30 µM [7]: 7% |
| CCCC[C@H](CN(O)C=O)C(=O)N1CC2(CC2)C[C@H]1C(=O)Nc1ncccc1F [Example 5] | 2 (≈ 4.92 µM) | 64 (≈ 157 µM) | > 64 | 64 (≈ 157 µM) | 0.5 (≈ 1.23 µM) | 0.5 (≈ 1.23 µM) | 0.5 (≈ 1.23 µM) | 0.25 (≈ 0.615 µM) | 0.25 (≈ 0.615 µM) | 0.25 (≈ 0.615 µM) | 0.125 (≈ 0.308 µM) | 0.5 (≈ 1.23 µM) | 2 (≈ 4.92 µM) | 2 (≈ 4.92 µM) | 2 (≈ 4.92 µM) | 2 (≈ 4.92 µM) | 0.5 (≈ 1.23 µM) | 0.5 (≈ 1.23 µM) | 0.5 (≈ 1.23 µM) | 0.5 (≈ 1.23 µM) | MIC (anti-bacterial activity) ([6]; strain MSSE 14-1): 0.125 µg/mL (≈ 0.308 µM); MIC (anti-bacterial activity) ([6]; strain MSSE 14-2): 0.25 µg/mL (≈ 0.615 µM); MIC (anti-bacterial activity) ([6]; strain MSSE 14-3): 0.25 µg/mL (≈ 0.615 µM); MIC (anti-bacterial activity) ([6]; strain MSSE 14-4): 0.25 µg/mL (≈ 0.615 µM); inhibition at 30 µM ([7]; concentration of 30 μM, 72 hours, CCK-8): -15% |
